Laboratory results from PubChem BioAssay (NCI).
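Assay format: 96-well plates, 48-hour exposure. Here, GI50 denotes the concentration required for 50% inhibition of growth. Definition used: TGI = concentration required for complete inhibition of growth.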

Key:
Assay in all cases: NCI anticancer screen, dose series, 48 h
NCI-H23 lung = tested on: NCI-H23 lung
DU-145 prostate = tested on: DU-145 prostate
MDA-MB-231 breast = tested on: MDA-MB-231 breast
CCRF-CEM leukemia = tested on: CCRF-CEM leukemia
OVCAR-8 ovarian = tested on: OVCAR-8 ovarian
MALME-3M melanoma = tested on: MALME-3M melanoma
HCT-15 colon = tested on: HCT-15 colon
NCI-H522 lung = tested on: NCI-H522 lung
SF-539 CNS = tested on: SF-539 CNS
NCI-H226 lung = tested on: NCI-H226 lung

SMILES	GI50 (NCI-H23 lung) [nM]	TGI (NCI-H23 lung) [µM]	GI50 (DU-145 prostate) [µM]	TGI (DU-145 prostate) [µM]	GI50 (MDA-MB-231 breast) [nM]	TGI (MDA-MB-231 breast) [µM]	GI50 (CCRF-CEM leukemia) [nM]	TGI (CCRF-CEM leukemia) [µM]	GI50 (OVCAR-8 ovarian) [nM]	TGI (OVCAR-8 ovarian) [µM]	GI50 (MALME-3M melanoma) [µM]	TGI (MALME-3M melanoma) [µM]	GI50 (HCT-15 colon) [nM]	TGI (HCT-15 colon) [µM]	GI50 (NCI-H522 lung) [nM]	TGI (NCI-H522 lung) [µM]	GI50 (SF-539 CNS) [nM]	TGI (SF-539 CNS) [µM]	GI50 (NCI-H226 lung) [nM]	TGI (NCI-H226 lung) [µM]
CCC1(O)C(=O)OCc2c1cc1n(c2=O)Cc2cc3c(NC(=O)CN)cccc3nc2-1 (stereo unspecified)	270	2.58	0.348	> 20.2	58100	> 100	20.8	1.43	557	30.2	6.94	41.1	5220	> 100	387	9.9	110	0.821	385	4.29
CSc1nc2sc3c(c2c(=O)n1-c1ccc(C(C)C)cc1)CCC(=O)C3	2200	4.53	3.75	> 100	2470	6.3	2420	6.42	2120	4.49	3.11	8.25	2140	4.04	1960	3.72	2050	4.1	1990	4.68
CC1OC(OC2C(O)CC(OC3C(O)CC(OC4CCC5(C)C(CCC6C5CC(O)C5(C)C(C7=CC(=O)OC7)CCC65O)C4)OC3C)OC2C)CC(O)C1O (stereo unspecified)	23.5	0.0662	0.0308	0.0903	205	0.616	35.8	0.245	56.6	0.196	0.0373	0.16	113	0.293	22.5	0.0639	42.7	0.15	137	0.266
Cc1cc[n+]2c(c1)-c1cc(C)cc[n+]1CC2	–	> 100	–	> 100	–	> 100	–	> 100	–	> 100	–	> 100	–	> 100	–	> 92.9	–	> 100	–	> 100
CC1=C(CC(=O)c2cccc([N+](=O)[O-])c2)C(=O)c2ccccc2C1=O	9120	36.9	7.55	20.1	1890	12.7	3190	19.3	5870	48.9	4.95	18.3	3790	19.5	2970	8.84	3020	10.9	18700	46.5
c1ccc2c(c1)Nc1ccncc1S2	20700	> 100	32.3	> 100	26900	> 100	28200	> 100	21600	> 100	28.2	89.8	28000	> 100	11800	65.7	19700	67.1	17100	> 100
O=C(CCCCCCN1CC(=O)N2[C@@H](c3ccc(Cl)c(Cl)c3)c3[nH]c4ccccc4c3C[C@H]2C1=O)NO	4730	13.5	4.01	15.3	3470	9.31	1070	> 33.3	2820	17.9	2.7	14.8	10000	> 33.3	3210	10.5	3760	9.27	4520	12.2
COc1ccc(/C=C(\C#N)n2nnc3c(F)cccc32)cc1	508	12.5	0.503	> 40.2	551	3.68	311	> 100	532	> 34.5	0.517	> 100	133	> 100	182	–	322	1.48	1980	> 100
Oc1ccc(C(c2ccc(O)cc2)c2ccc(Br)cn2)cc1	267	0.772	2.8	> 69.3	13400	49.2	14700	> 100	276	0.786	17.7	59.8	425	16.9	1430	46.6	5280	27.6	243	0.651
NS(=O)(=O)c1ccc(-c2cc3ccncc3cc2OCc2ccccc2)cc1	> 25000	> 25	16.4	> 25	14600	> 25	> 17700	> 25	8190	> 25	22.8	> 25	13200	> 25	> 17000	> 25	7170	> 25	> 19900	> 25
COC1=C(OC)C(=O)C(SC/C=C(\C)CCCC(C)CCCC(C)CCCC(C)C)=CC1=O (stereo unspecified)	1370	36.1	4.27	> 100	1920	8.78	1190	> 100	456	> 100	0.513	–	1380	> 100	635	> 38.1	1410	> 92.2	2750	> 100
Cc1cccc2c3c(sc12)C(c1ccc(Cl)cc1)C(C#N)=C(N)O3 (stereo unspecified)	436	10.4	0.459	11.6	679	7.74	382	32.1	471	6.89	0.653	20	374	2.81	314	4.95	299	1.14	763	7.46
C[C@]12CC[C@@H]3c4cc(OC(F)F)c(OS(N)(=O)=O)cc4CC[C@H]3[C@@H]1CC[C@@H]2O	621	20.1	0.49	> 100	1620	15.5	398	> 100	848	60.7	0.485	21.6	406	13.6	274	14.8	333	4.58	1800	21.8
COc1ccc(NC(=O)C2CCC(CNS(=O)(=O)c3ccccc3)CC2)cc1OC (stereo unspecified)	> 100000	> 100	> 100	> 100	35300	> 100	> 100000	> 100	> 100000	> 100	40.3	> 100	> 100000	> 100	60900	> 100	> 100000	> 100	> 100000	> 100
O=C(CC1(O)C(=O)N(Cc2ccccc2)c2ccccc21)c1ccc(C(=O)NCC2CCC3(CC2)OOC2(CCCCC2)OO3)cc1 (stereo unspecified)	402	1.28	0.25	0.625	1150	2.95	421	2.17	287	0.817	0.566	2	1760	4.76	240	0.73	399	1.04	3500	10.8
O=C(Nc1cccc(-n2cc(-c3ccncc3)c(-c3cc(O)cc(Cl)c3)n2)c1)c1cc(C(F)(F)F)cc(C(F)(F)F)c1	4160	46.5	5.19	> 100	1420	3.32	2680	> 100	3580	> 100	3.69	94.4	2600	14.7	1600	8.37	5010	51.7	16100	> 100
C=CCN1CC(=O)N2[C@@H](Cc3ccc(O)cc3F)C(=O)N(Cc3cccc(N4CC(N5CCN(CC)CC5)C4)n3)C[C@@H]2N1C(=O)NCc1ccccc1	75.6	> 100	0.0844	> 100	21.6	0.139	39.8	> 100	29.5	–	0.0292	0.211	449	> 20.9	28.4	–	31.7	0.288	46.1	> 100
Cc1cc(C)nc(SC2=C(Nc3cc(Cl)ccc3O)C(=O)N(Cc3ccccc3)C2=O)n1	113000	> 160	39	108	16800	48	7380	124	27000	110	39.4	99.7	23500	78.4	17400	> 160	> 160000	> 160	1780	47.7
